Experiment: xn = mol fraction of the nth substance listed
Conditions: 101 kPa, Liquid; for viscosity: Falling or rolling sphere viscometry; for mass density: Vibrating tube method

CCCC[n+]1ccc(C)cc1.O=S(=O)([N-]S(=O)(=O)C(F)(F)F)C(F)(F)F + CCCC[n+]1ccccc1.F[B-](F)(F)F
Conditions	mass density [kg/m3]	viscosity [mPa·s]
293.15 K, x2 = 0	1416.6	70.6
293.15 K, x2 = 0.0575	1409.3	75.3
293.15 K, x2 = 0.1136	1401.9	77.8
293.15 K, x2 = 0.2311	1385.1	88.7
293.15 K, x2 = 0.3515	1366	101.1
293.15 K, x2 = 0.4566	1347.8	115.1
293.15 K, x2 = 0.5692	1326.2	135.2
293.15 K, x2 = 0.673	1304	153.4
293.15 K, x2 = 0.7836	1277.5	171.9
293.15 K, x2 = 0.889	1249.1	195
293.15 K, x2 = 0.9535	1230.2	216.1
303.15 K, x2 = 0	1407.3	45.2
303.15 K, x2 = 0.0575	1400.1	47.3
303.15 K, x2 = 0.1136	1392.8	49.3
303.15 K, x2 = 0.2311	1376.2	55.5
303.15 K, x2 = 0.3515	1357.4	63.3
303.15 K, x2 = 0.4566	1339.4	72.7
303.15 K, x2 = 0.5692	1318.1	81.7
303.15 K, x2 = 0.673	1296.1	90.6
303.15 K, x2 = 0.7836	1270	98.9
303.15 K, x2 = 0.889	1241.9	109.6
303.15 K, x2 = 0.9535	1223.2	118.8
313.15 K, x2 = 0	1398.1	30.6
313.15 K, x2 = 0.0575	1391	31.9
313.15 K, x2 = 0.1136	1383.8	33
313.15 K, x2 = 0.2311	1367.4	37
313.15 K, x2 = 0.3515	1348.8	42.3
313.15 K, x2 = 0.4566	1331.1	47.2
313.15 K, x2 = 0.5692	1310	52.1
313.15 K, x2 = 0.673	1288.3	56.6
313.15 K, x2 = 0.7836	1262.5	61.3
313.15 K, x2 = 0.889	1234.7	66.9
313.15 K, x2 = 0.9535	1216.2	72.5
323.15 K, x2 = 0	1388.8	21.8
323.15 K, x2 = 0.0575	1381.9	22.6
323.15 K, x2 = 0.1136	1374.7	23.5
323.15 K, x2 = 0.2311	1358.6	26.4
323.15 K, x2 = 0.3515	1340.3	29.6
323.15 K, x2 = 0.4566	1322.8	32.4
323.15 K, x2 = 0.5692	1302	35.4
323.15 K, x2 = 0.673	1280.5	38.2
323.15 K, x2 = 0.7836	1255	41
323.15 K, x2 = 0.889	1227.6	44.1
323.15 K, x2 = 0.9535	1209.3	46.5
333.15 K, x2 = 0	1379.7	16.1
333.15 K, x2 = 0.0575	1372.8	16.8
333.15 K, x2 = 0.1136	1365.8	17.5
333.15 K, x2 = 0.2311	1349.8	19.5
333.15 K, x2 = 0.3515	1331.8	21.6
333.15 K, x2 = 0.4566	1314.5	23.3
333.15 K, x2 = 0.5692	1294	25.2
333.15 K, x2 = 0.673	1272.8	27
333.15 K, x2 = 0.7836	1247.6	28.9
333.15 K, x2 = 0.889	1220.5	30.8
333.15 K, x2 = 0.9535	1202.4	32.2
343.15 K, x2 = 0	1370.5	12.3
343.15 K, x2 = 0.0575	1363.8	12.8
343.15 K, x2 = 0.1136	1356.9	13.3
343.15 K, x2 = 0.2311	1341.1	14.6
343.15 K, x2 = 0.3515	1323.3	16
343.15 K, x2 = 0.4566	1306.3	17.2
343.15 K, x2 = 0.5692	1286	18.5
343.15 K, x2 = 0.673	1265.1	19.7
343.15 K, x2 = 0.7836	1240.2	20.9
343.15 K, x2 = 0.889	1213.4	22.1
343.15 K, x2 = 0.9535	1195.6	23
353.15 K, x2 = 0	1361.5	9.8
353.15 K, x2 = 0.0575	1354.9	10.1
353.15 K, x2 = 0.1136	1348	10.5
353.15 K, x2 = 0.2311	1332.5	11.4
353.15 K, x2 = 0.3515	1314.9	12.4
353.15 K, x2 = 0.4566	1298.1	13.3
353.15 K, x2 = 0.5692	1278.1	14.1
353.15 K, x2 = 0.673	1257.5	14.9
353.15 K, x2 = 0.7836	1232.8	15.8
353.15 K, x2 = 0.889	1206.3	16.6
353.15 K, x2 = 0.9535	1188.8	17.2
